According to patent US20260226037A1, “MICROTUBULE TARGETING AGENTS” (ARIEL SCIENTIFIC INNOVATIONS LTD., priority 2022, published 2026):

Legend:
Type in all cases: cell-based
RPMI 8226 cells = assay: XTT cytotoxicity, RPMI 8226; conditions: Homo sapiens; RPMI 8226, multiple myeloma, non-resistant; read-out: IC50
Method: (§1) The cytotoxic activity of the novel family was evaluated against various tumor cells, including myeloma cells, acute lymphoblastic leukemia cells, acute monocytic leukemia cells, chronic myelogenous leukemia cells, pancreatic cancer cells, breast cancer cells, uterine sarcoma cells, cervix adenocarcinoma cells, ovary cancer cells, melanoma cells, osteosarcoma cells, prostate cancer cells, lung cancer cells, neuroblastoma cells and colorectal adenocarcinoma cells by XTT assay.

RPMI-DOX40 cells = assay: XTT cytotoxicity, RPMI-DOX40; conditions: for IC50: RPMI-DOX40, multiple myeloma, P-gp overexpression, read-out: IC50; for IC50 ratio between resistant and non-resistant cells: RPMI-DOX40 / RPMI 8226
Method: as §1

N6/ADR cells = assay: XTT cytotoxicity, N6/ADR; conditions: for IC50 ratio between resistant and non-resistant cells: N6/ADR / NALM6; for IC50: N6/ADR, acute lymphoblastic leukemia, P-gp overexpression, read-out: IC50
Method: as §1
(§2) Most tubulin-binding anticancer drugs currently used in the clinic are substrates for Pgp effux pump. […] The inventors tested the viability of NALM6 acute lymphoblastic leukemia cell line (ALL) and its corresponding doxorubicin resistant N6/ADR cell line that overexpress Pgp glycoprotein and has cross-resistance to vincristine.

NALM6 cells = assay: XTT cytotoxicity, NALM6; conditions: Homo sapiens, NALM-6; NALM6, acute lymphoblastic leukemia, non-resistant; read-out: IC50
Method: as §1, §2

MES-SA/DX5 cells = assay: XTT cytotoxicity, MES-SA/DX5; conditions: for IC50: Homo sapiens, MES-SA/DX5, uterine sarcoma, P-gp overexpression; for IC50 ratio between resistant and non-resistant cells: MES-SA/DX5 / MES-SA
Method: as §1

MCF7 cells = assay: XTT cytotoxicity, MCF7; conditions: Homo sapiens; MCF7, breast adenocarcinoma, non-resistant
Method: as §1

MCF7-VP cells = assay: XTT cytotoxicity, MCF7-VP; conditions: for IC50: Homo sapiens, MCF7-VP, breast adenocarcinoma, MRP overexpression; for IC50 ratio between resistant and non-resistant cells: MCF7-VP / MCF7
Method: as §1

MM1.R cells = assay: XTT cytotoxicity, MM1.R; conditions: for IC50: MM.1R, MM1.R, multiple myeloma, dexamethasone resistant, read-out: IC50
Method: as §1

RPMI-LR5 cells = assay: XTT cytotoxicity, RPMI-LR5; conditions: for IC50: RPMI-LR5, multiple myeloma, melphalan resistant, read-out: IC50; for IC50 ratio between resistant and non-resistant cells: RPMI-LR5 / RPMI 8226
Method: as §1

RPMI-MR20 cells = assay: XTT cytotoxicity, RPMI-MR20; conditions: for IC50: RPMI-MR20, mitoxantrone resistant, read-out: IC50; for IC50 ratio between resistant and non-resistant cells: RPMI-MR20 / RPMI 8226
Method: as §1

MES-SA cells = assay: XTT cytotoxicity, MES-SA; conditions: Homo sapiens, poorly differentiated uterine sarcoma, non-resistant
Method: as §1

[1] = system: colchicine binding site on tubulin protein; assay: EBI competition assay, RPMI-8226 cells; conditions: RPMI-8226 living cells
MM1.S cells = assay: XTT cytotoxicity, MM1.S; conditions: Homo sapiens, multiple myeloma, non-resistant, read-out: IC50
Method: as §1

Row | Structure (SMILES) | IC50 (RPMI 8226 cells) [nM] | IC50 (RPMI-DOX40 cells) [nM] | IC50 ratio between resistant and non-resistant cells (RPMI-DOX40 cells) | IC50 ratio between resistant and non-resistant cells (N6/ADR cells) | IC50 (N6/ADR cells) [nM] | IC50 (NALM6 cells) [nM] | IC50 (MCF7 cells) [nM] | IC50 (MCF7-VP cells) [nM] | IC50 ratio between resistant and non-resistant cells (MCF7-VP cells) | IC50 (MM1.R cells) [nM] | IC50 (RPMI-LR5 cells) [nM] | IC50 ratio between resistant and non-resistant cells (RPMI-LR5 cells) | IC50 (MES-SA/DX5 cells) [nM] | IC50 ratio between resistant and non-resistant cells (MES-SA/DX5 cells) | IC50 (RPMI-MR20 cells) [nM] | IC50 ratio between resistant and non-resistant cells (RPMI-MR20 cells) | IC50 (MES-SA cells) [nM] | prevention of covalent binding of EBI to the colchicine binding site [1] | IC50 (MM1.S cells) [nM] | further results
1 | CCCCCOC(=O)c1[nH]c2c(c1C)C(=O)CN(c1ccccc1)C2 [SMS078, Pentyl 3-methyl-4-oxo-6-phenyl-4,5,6,7-tetrahydro-1H-pyrrolo[2,3-c]pyridine-2-carboxylate] | 210 | 489 | 2.329 | 0.927 | 165 | 178 |  |  |  |  |  |  |  |  |  |  |  |  |  | 
2 | COc1cc2c(c(OC)c1OC)-c1ccc(OC)c(=O)cc1[C@@H](NC(C)=O)CC2 [Colchicine] |  |  |  |  |  |  |  |  |  |  |  |  |  |  |  |  |  |  |  | effectiveness in subline overexpressing PgP (MES-SA/DX5 cells; MES-SA/DX5 vs MES-SA): less effective in the subline overexpressing PgP
3 | CCCCCOC(=O)c1[nH]c2c(c1C)C(=O)CC(c1ccco1)C2 (stereo not shown) [SMS001, reference compound] | 40 | 34 | 0.850 | 1.000 | 37 | 37 | 350 | 469 | 1.340 | 69 | 29 | 0.725 | 49 | 0.241 | 35 | 0.875 | 203 | prevented the covalent binding of EBI to the colchicine binding site | 63 | 
4 | CCCCCOC(=O)c1[nH]c2c(c1C)C(=O)CC(c1nccs1)C2 (stereo not shown) [SMS213, pentyl-3-methyl-4-oxo-6-(thiazol-2-yl)-4,5,6,7-tetrahydro-1H-indole-2-carboxylate] | 92 | 68 | 0.739 | 1.019 | 109 | 107 | 243 | 513 | 2.114 | 147 | 60 | 0.652 | 139 | 1.158 | 79 | 0.859 | 120 |  | 124 | IC50 ratio between resistant and non-resistant cells (MM1.R cells; MM1.R / MM1.S): 1.185
5 | CCCOC(=O)c1[nH]c2c(c1C)C(=O)CN(c1ncco1)C2 [SMS294, Propyl 3-methyl-6-(oxazol-2-yl)-4-oxo-4,5,6,7-tetrahydro-1H-pyrrolo[2,3-c]pyridine-2-carboxylate] | 666 | 1060 | 1.598 | 2.138 | 1940 | 907 |  |  |  |  |  |  |  |  |  |  |  |  |  | 
6 | CCCOC(=O)c1[nH]c2c(c1C)C(O)CC(c1ncco1)C2 (stereo not shown) [SMS291, propyl-4-hydroxy-3-methyl-6-(oxazol-2-yl)-4,5,6,7-tetrahydro-1H-indole-2-carboxylate] | 978 | 531 | 0.543 | 0.686 | 350 | 510 |  |  |  |  |  |  |  |  |  |  |  | did not prevent the covalent binding of EBI to the colchicine binding site |  | 
